Measurements: ChEMBL document CHEMBL1212752, “Efficacy of posaconazole in a murine disseminated infection by Candida tropicalis” (2010)
≈ marks a conversion by molar mass, not a printed value. Calls of active or inactive are those of the source. The calls are words filed in the database; no cut-off is given here.

Legend:
[1] = test system: Candida tropicalis; experiment: Antifungal activity against Candida tropicalis FMR 8895 infected in immunosuppressed OF1 mouse assessed as reduction in fungal tissue burden in mouse spleen at 50 mg/kg, po qd for 5 days; type: functional, organism-based; set-up: dose 50 mg/kg
[2] = test system: Candida tropicalis; experiment: Antifungal activity against Candida tropicalis FMR 10240 assessed as compound concentration causing =>99% reduction in microbial growth; type: functional
[3] = test system: Candida tropicalis; experiment: Antifungal activity against Candida tropicalis FMR 10238 assessed as compound concentration causing =>99% reduction in microbial growth; type: functional
[4] = test system: Candida tropicalis; experiment: Antifungal activity against Candida tropicalis FMR 10239 assessed as inhibition of growth by broth dilution method; type: functional
[5] = test system: Candida tropicalis; experiment: Antifungal activity against Candida tropicalis FMR 10239 infected in immunosuppressed OF1 mouse assessed as prolongation of mouse survival at 25 mg/kg, po bid for 5 days; type: functional, organism-based; set-up: dose 25 mg/kg
[6] = test system: Candida tropicalis; experiment: Antifungal activity against Candida tropicalis FMR 9727 infected in immunosuppressed OF1 mouse assessed as prolongation of mouse survival at 25 mg/kg, po bid for 5 days; type: functional, organism-based; set-up: dose 25 mg/kg
[7] = test system: Candida tropicalis; experiment: Antifungal activity against Candida tropicalis FMR 10333 assessed as inhibition of growth by broth dilution method; type: functional
[8] = test system: Candida tropicalis; experiment: Antifungal activity against Candida tropicalis FMR 10232 assessed as compound concentration causing =>99% reduction in microbial growth; type: functional
[9] = test system: Candida tropicalis; experiment: Antifungal activity against Candida tropicalis FMR 8895 infected in immunosuppressed OF1 mouse assessed as reduction in fungal tissue burden in mouse spleen at 25 mg/kg, po bid for 5 days; type: functional, organism-based; set-up: dose 25 mg/kg
[10] = test system: Candida tropicalis; experiment: Antifungal activity against Candida tropicalis FMR 10235 assessed as compound concentration causing =>99% reduction in microbial growth; type: functional
[11] = test system: Candida tropicalis; experiment: Antifungal activity against Candida tropicalis FMR 10237 assessed as compound concentration causing =>99% reduction in microbial growth; type: functional
[12] = test system: Candida tropicalis; experiment: Antifungal activity against Candida tropicalis FMR 10239 infected in immunosuppressed OF1 mouse assessed as reduction in fungal tissue burden in mouse kidney at 50 mg/kg, po qd for 5 dayss; type: functional, organism-based; set-up: dose 50 mg/kg
[13] = test system: Candida tropicalis; experiment: Antifungal activity against Candida tropicalis FMR 10236 assessed as inhibition of growth by broth dilution method; type: functional
[14] = test system: Candida tropicalis; experiment: Antifungal activity against Candida tropicalis FMR 10333 assessed as compound concentration causing =>99% reduction in microbial growth; type: functional
[15] = test system: Candida tropicalis; experiment: Antifungal activity against Candida tropicalis FMR 10239 infected in immunosuppressed OF1 mouse assessed as reduction in fungal tissue burden in mouse spleen at 50 mg/kg, po qd for 5 days; type: functional, organism-based; set-up: dose 50 mg/kg
[16] = test system: Candida tropicalis; experiment: Antifungal activity against Candida tropicalis FMR 8898 assessed as inhibition of growth by broth dilution method; type: functional
[17] = test system: Candida tropicalis; experiment: Antifungal activity against Candida tropicalis FMR 9726 infected in immunosuppressed OF1 mouse assessed as reduction in fungal tissue burden in mouse kidney at 50 mg/kg, po qd for 5 days; type: functional, organism-based; set-up: dose 50 mg/kg
[18] = test system: Candida tropicalis; experiment: Antifungal activity against Candida tropicalis FMR 10237 infected in immunosuppressed OF1 mouse assessed as reduction in fungal tissue burden in mouse kidney at 25 mg/kg, po bid for 5 days; type: functional, organism-based; set-up: dose 25 mg/kg
[19] = test system: Candida tropicalis; experiment: Antifungal activity against Candida tropicalis FMR 9726 infected in immunosuppressed OF1 mouse assessed as reduction in fungal tissue burden in mouse spleen at 50 mg/kg, po qd for 5 days; type: functional, organism-based; set-up: dose 50 mg/kg
[20] = test system: Candida tropicalis; experiment: Antifungal activity against Candida tropicalis FMR 10232 assessed as inhibition of growth by broth dilution method; type: functional
[21] = test system: Candida tropicalis; experiment: Antifungal activity against Candida tropicalis FMR 10241 assessed as inhibition of growth by broth dilution method; type: functional
[22] = test system: Candida tropicalis; experiment: Antifungal activity against Candida tropicalis FMR 10237 assessed as inhibition of growth by broth dilution method; type: functional
[23] = test system: Candida tropicalis; experiment: Antifungal activity against Candida tropicalis FMR 10239 infected in immunosuppressed OF1 mouse assessed as prolongation of mouse survival at 50 mg/kg, po qd for 5 days; type: functional, organism-based; set-up: dose 50 mg/kg
[24] = test system: Candida tropicalis; experiment: Antifungal activity against Candida tropicalis FMR 10237 infected in immunosuppressed OF1 mouse assessed as prolongation of mouse survival at 25 mg/kg, po bid for 5 days; type: functional, organism-based; set-up: dose 25 mg/kg
[25] = test system: Candida tropicalis; experiment: Antifungal activity against Candida tropicalis FMR 10241 assessed as compound concentration causing =>99% reduction in microbial growth; type: functional
[26] = test system: Candida tropicalis; experiment: Antifungal activity against Candida tropicalis FMR 9727 infected in immunosuppressed OF1 mouse assessed as reduction in fungal tissue burden in mouse spleen at 50 mg/kg, po qd for 5 days; type: functional, organism-based; set-up: dose 50 mg/kg
[27] = test system: Candida tropicalis; experiment: Antifungal activity against Candida tropicalis FMR 8895 infected in immunosuppressed OF1 mouse assessed as reduction in fungal tissue burden in mouse kidney at 50 mg/kg, po qd for 5 days; type: functional, organism-based; set-up: dose 50 mg/kg
[28] = test system: Candida tropicalis; experiment: Antifungal activity against Candida tropicalis FMR 10236 assessed as compound concentration causing =>99% reduction in microbial growth; type: functional
[29] = test system: Candida tropicalis; experiment: Antifungal activity against Candida tropicalis FMR 9726 infected in immunosuppressed OF1 mouse assessed as prolongation of mouse survival at 25 mg/kg, po bid for 5 days; type: functional, organism-based; set-up: dose 25 mg/kg
[30] = test system: Candida tropicalis; experiment: Antifungal activity against Candida tropicalis FMR 9726 infected in immunosuppressed OF1 mouse assessed as reduction in fungal tissue burden in mouse spleen at 25 mg/kg, po bid for 5 days; type: functional, organism-based; set-up: dose 25 mg/kg
[31] = test system: Candida tropicalis; experiment: Antifungal activity against Candida tropicalis FMR 8895 infected in immunosuppressed OF1 mouse assessed as reduction in fungal tissue burden in mouse kidney at 25 mg/kg, po bid for 5 days; type: functional, organism-based; set-up: dose 25 mg/kg
[32] = test system: Candida tropicalis; experiment: Antifungal activity against Candida tropicalis FMR 10239 assessed as compound concentration causing =>99% reduction in microbial growth; type: functional

CC[C@@H]([C@H](C)O)n1ncn(-c2ccc(N3CCN(c4ccc(OC[C@@H]5CO[C@@](Cn6cncn6)(c6ccc(F)cc6F)C5)cc4)CC3)cc2)c1=O [POSACONAZOLE]
Activity [1]: inactive
MFC [2]: > 16 µg/mL
MFC [3]: > 16 µg/mL
MIC50 [4]: < 0.03 µg/mL
Activity [5]: Active
Activity [6]: Active
MIC50 [7]: 0.06 µg/mL (≈ 0.0856 µM)
MFC [8]: > 16 µg/mL
Activity [9]: inactive
MFC [10]: > 16 µg/mL
MFC [11]: > 16 µg/mL
Activity [12]: Active
MIC50 [13]: 0.06 µg/mL (≈ 0.0856 µM)
MFC [14]: > 16 µg/mL
Activity [15]: Active
MIC50 [16]: 0.125 µg/mL (≈ 0.178 µM)
Activity [17]: Active
Activity [18]: Active
Activity [19]: Active
MIC50 [20]: 0.06 µg/mL (≈ 0.0856 µM)
MIC50 [21]: 0.125 µg/mL (≈ 0.178 µM)
MIC50 [22]: 1 µg/mL (≈ 1.43 µM)
Activity [23]: Active
Activity [24]: Active
MFC [25]: > 16 µg/mL
Activity [26]: Active
Activity [27]: inactive
MFC [28]: > 16 µg/mL
Activity [29]: Active
Activity [30]: Active
Activity [31]: inactive
MFC [32]: 1 µg/mL (≈ 1.43 µM)
